Measured values reported in article PMC9499525, “Tissue-restricted inhibition of mTOR using chemical genetics” (Proceedings of the National Academy of Sciences of the …, 2022).

How the values were obtained:
[1] = target: T1, FKBP12-HA (wild-type) / GST-mTOR FRB domain ternary complex (Homo sapiens, UniProt P42345+P62942); assay: TR-FRET ternary complex formation, wild-type FKBP12 with mTOR FRB; type: binding
T1 construct: recombinant HA-tagged wild-type or V55G mutant FKBP12 with GST-tagged mTOR FRB domain; 8xHis (cleaved yes); made in house; host or cells: E. coli BL21 (DE3) for FKBP12
T1 sequence (P62942 whole entry, the tested form may be a part): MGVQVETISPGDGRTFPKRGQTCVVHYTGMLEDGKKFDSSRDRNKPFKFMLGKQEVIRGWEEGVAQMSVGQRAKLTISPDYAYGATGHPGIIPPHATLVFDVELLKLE
T1 sequence (P42345 2012-2144 limits assumed): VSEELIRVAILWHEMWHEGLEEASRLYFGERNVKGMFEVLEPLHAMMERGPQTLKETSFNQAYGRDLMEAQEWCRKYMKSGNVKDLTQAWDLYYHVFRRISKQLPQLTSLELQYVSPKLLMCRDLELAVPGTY
Method: TR-FRET assay was performed using recommended conditions from Cisbio with slight modifications. FKBP12-HA, FKBP12 V55G-HA, and GST-mTORFRB recombinant proteins were each diluted to 5 nM in assay buffer (20 mM HEPES pH 7.5, 150 mM NaCl, 0.05% Tween-20, 0.1% bovine serum albumin [BSA], 0.5 mM dithiothreitol [DTT]). Anti-GST-Tb (Cisbio) and Anti-HA-XL665 (Cisbio) were diluted to 0.625 µg/mL and 5 µg/mL, respectively, in assay buffer. Rapa* compounds and FK506 were diluted to 50 µM and rapamycin to 5 µM in assay buffer containing 5% DMSO, and threefold serial dilution series were made from these solutions. […] Time-resolved fluorescence was read on a Tecan Spark 20M plate reader with the following parameters: Lag time: 60 µs; Integration time: 500 µs; Read A: Excitation filter 320 ([25]) nm, Emission filter 610 ([25]) nm, Gain 130; Read B: Excitation filter 320 ([25]) nm, Emission filter 665 ([8]) nm, Gain 165. […]
Human FKBP12 coding sequence was cloned a pET-47b bacterial expression vector using Gibson assembly and a C-terminal HA-tag was added by QuickChange PCR. FKBP12 proteins were expressed as 8xHis fusions in E. coli BL21 (DE3) cells. […]
PAMPA was performed by Quintara Discovery as described previously (2). Compounds were analyzed at 100 µM in PBS and measured using liquid chromatography-mass spectrometry (LC-MS) after 5 hours. […]

[2] = target: T2, FKBP12 V55G-HA / GST-mTOR FRB domain ternary complex (Homo sapiens, UniProt P42345+P62942, V56G); assay: TR-FRET ternary complex formation, FKBP12 V55G with mTOR FRB; type: binding
T2 construct: recombinant HA-tagged wild-type or V55G mutant FKBP12 with GST-tagged mTOR FRB domain; 8xHis (cleaved yes); made in house; host or cells: E. coli BL21 (DE3) for FKBP12
T2 sequence (P62942 whole entry V56G, the tested form may be a part): as the sequence (P62942 whole entry, the tested form may be a part) above, with V56G counted along it
T2 sequence (P42345 2012-2144 limits assumed): as the sequence (P42345 2012-2144 limits assumed) above
Method: TR-FRET assay was performed using recommended conditions from Cisbio with slight modifications. FKBP12-HA, FKBP12 V55G-HA, and GST-mTORFRB recombinant proteins were each diluted to 5 nM in assay buffer (20 mM HEPES pH 7.5, 150 mM NaCl, 0.05% Tween-20, 0.1% bovine serum albumin [BSA], 0.5 mM dithiothreitol [DTT]). Anti-GST-Tb (Cisbio) and Anti-HA-XL665 (Cisbio) were diluted to 0.625 µg/mL and 5 µg/mL, respectively, in assay buffer. Rapa* compounds and FK506 were diluted to 50 µM and rapamycin to 5 µM in assay buffer containing 5% DMSO, and threefold serial dilution series were made from these solutions. We mixed 4 µL diluted FKBP12-HA protein, 4 µL diluted GST-mTORFRB, and 4 µL of compound or DMSO control in a well of a black low-volume 384-well plate (Corning 4514), and the mixture was incubated at room temperature for 1 h. We then added 4 µL of Anti-GST-Tb, and 4 µL Anti-HA-XL665, and the mixture was incubated at room temperature for an additional 1 h. Time-resolved fluorescence was read on a Tecan Spark 20M plate reader with the following parameters: Lag time: 60 µs; Integration time: 500 µs; Read A: Excitation filter 320 ([25]) nm, Emission filter 610 ([25]) nm, Gain 130; Read B: Excitation filter 320 ([25]) nm, Emission filter 665 ([8]) nm, Gain 165. Three replicates were performed for each assay condition. […]
Human FKBP12 coding sequence was cloned a pET-47b bacterial expression vector using Gibson assembly and a C-terminal HA-tag was added by QuickChange PCR. FKBP12 proteins were expressed as 8xHis fusions in E. coli BL21 (DE3) cells. […] Samples were then purified by size exclusion chromatography, concentrated to 10-20 mg/mL, and snap frozen in liquid nitrogen. pGEX-2T FRB was a gift from Jie Chen (Addgene plasmid #26607). mTOR FRB was expressed as a GST-fusion and purified as previously described (1). […]
PAMPA was performed by Quintara Discovery as described previously (2). Compounds were analyzed at 100 µM in PBS and measured using liquid chromatography-mass spectrometry (LC-MS) after 5 hours. […] Compounds were analyzed at 10 µM and measured by LC-MS after 1 hour.

[3] = PAMPA membrane permeability; type: in vitro ADME; details: 100 µM in PBS, LC-MS
Method: PAMPA and Caco-2 membrane permeability assays
PAMPA was performed by Quintara Discovery as described previously (2). Compounds were
analyzed at 100 µM in PBS and measured using liquid chromatography-mass spectrometry (LC-

[4] = Bidirectional Caco-2 cell permeability; type: in vitro ADME; details: human, LC-MS
Method: PAMPA and Caco-2 membrane permeability assays […]
MS) after 5 hours. Bidirectional Caco-2 cell permeability assay was performed by Quintara
Discovery. Compounds were analyzed at 10 µM and measured by LC-MS after 1 hour.

[5] = system: Flp-In 293 cells with and without FKBP12 V55G-HA; assay: Cell growth by CellTiter-Glo in Flp-In 293 cells; type: cell-based, human; details: 72 h treatment
Method: All cell lines were maintained in DMEM (Gibco) supplemented with 10% heat-inactivated FBS (Axenia Biologix) at 37 °C in 5% CO2. Flp-In T-REx 293 cells were obtained from Thermo Fisher supplemented with 15 µg/mL blasticin and 100 µg/mL Zeocin. […] When indicated, cells were treated with drugs at 60–80% confluency at a final DMSO concentration of 0.1%.
Cells were seeded into 96-well tissue-culture treated plates (Greiner) and were allowed to incubate for 24 h. Cells were treated with indicated compounds and incubated for 72 h (100 µL final well volume, 0.1% DMSO). Cell viability was assessed by CellTiter-Glo (Promega). Assay reagent was diluted 1:4 in PBS containing 1% Triton X-100, and 100 µL was added to each well and mixed on a plate shaker for 20 min. Luminescence was measured on a Tecan Spark 20M.

[6] = system: S. cerevisiae BY4741 fpr1-KO expressing human FKBP12 variants; assay: Yeast disk diffusion growth inhibition assay; type: cell-based, Saccharomyces cerevisiae; details: 100 µM on disk, 3 d
Text: BY4741 fpr1::URA3 yeast were generated by homologous recombination, selected on Ura- synthetic complete medium and subsequently grown in yeast extract-peptone-dextrose (YPD) medium ([46]). Human FKBP12 coding sequence was cloned via Gibson assembly into a pCH043 yeast expression vector, which had been previously modified with an HIS3 selection open reading frame (ORF). The C-terminal HA-tag and F46/V55 mutations were introduced by site-directed mutagenesis PCR. Plasmids were transformed into the BY4741 fpr1::URA3 strain and selected on His- synthetic complete medium. Isolated strains were verified by plasmid sequencing. To prepare yeast protein lysates, 2 optical density (OD) equivalents from an overnight culture was resuspended in 200 µl 0.1 M NaOH and incubated at room temperature for 15 min. Cells were pelleted, resuspended in 50 µL 2x SDS loading dye, and heated at 95 °C for 5 min. Following centrifugation at 20,000 × g for 10 min, supernatant was saved for analysis.
Yeast strains containing FKBP12-expression vectors were shaken overnight at 30 °C in 3 mL His- synthetic complete media. 0.1 OD of culture was spun down, resuspended in 1 mL sterile water, and 100 µL was spread on His-synthetic media containing galactose/raffinose to induce protein expression. Plates were incubated at 30 °C for 1 h to dry. Filter paper circles were prepared with a hole punch, placed on the plate, and 5 µL of DMSO, 100 µM rapamycin, or 100 µM Rapa* compound was pipetted onto the filter paper. Plates were incubated at 30 °C for 3 d before zones of growth inhibition were measured.

[7] = system: Drosophila larvae (w1118 control and FKBP12 V55G transgenic); assay: Drosophila larval development (pupae 9 d after egg laying); type: in vivo
Method: All Drosophila stocks and crosses were maintained on standard cornmeal-molasses food at 25 °C using a 12-h light/dark cycle. To generate UAS-FKBP12 V55G-HA transgenic lines, human FKBP12 V55G-HA ORF was cloned into a pUAST-attB vector between EcoR-I and Xho-I restriction sites. This construct was then integrated into an attB site using phiC31 integrase with the assistance of Rainbow Transgenic Flies, Inc. The driver stocks da-GAL4 (ubiquitous), elav-GAL4 and nSyb-GAL4 (neuronal-specific), Mef2-GAL4 and mhc-GAL4 (musculature), and 2–286-GAL4 and phm-GAL4 (ring-gland-specific) were obtained from Bloomington Drosophila Stock Center. The crossing schemes used in this study are depicted in SI Appendix, Fig. S11. For rapamycin or Rapa*3Z related experiments, fly food was prepared freshly 24 h before each experiment.
Fly food containing ethanol vehicle was used as control. […] Three biological replicates were used for each experiment. Data were analyzed using Prism 9.0 (GraphPad).

Structure (SMILES) | Ternary complex induction (in words), wild-type FKBP12 [1] | Ternary complex induction (in words), FKBP12 V55G [2] | Papp at 5 h, 100 µM [3] | Papp A→B at 1 h, 10 µM [4] | Papp B→A at 1 h, 10 µM [4] | Cell growth inhibition, 293 cells with and without FKBP12 V55G [5] | Growth inhibition of yeast, fpr1-KO with empty vector [6] | Growth inhibition of yeast expressing wild-type human FKBP12 ([6]; fpr1-KO + human FKBP12) | Growth inhibition of yeast expressing FKBP12 F46/V55 mutants ([6]; mutant strains) | Selectivity of ternary complex induction, wild-type vs V55G ([2]; FKBP12 vs FKBP12 V55G) | Effect on larval development in wild-type animals ([7]; wild-type (w1118) larvae, compound in food) | Dose required for complete inhibition of larval development ([7]; wild-type flies (w1118), in food, 9 d after egg laying)
C=CC[C@@H]1/C=C(\C)C[C@H](C)C[C@H](OC)[C@H]2O[C@@](O)(C(=O)C(=O)N3CCCC[C@H]3C(=O)O[C@H](/C(C)=C/[C@@H]3CC[C@@H](O)[C@H](OC)C3)[C@H](C)[C@@H](O)CC1=O)[C@H](C)C[C@@H]2OC [FK506, reference compound] | failed to induce either ternary complex | failed to induce either ternary complex |  |  |  |  |  |  |  |  |  | 
CO[C@H]1C[C@@H]2CC[C@@H](C)[C@@](O)(O2)C(=O)C(=O)N2CCCC[C@H]2C(=O)O[C@H]([C@H](C)C[C@@H]2CC[C@@H](O)[C@H](OC)C2)C/C(=N/O)[C@H](C)/C=C(\C)[C@@H](O)[C@@H](OC)C(=O)[C@H](C)C[C@H](C)/C=C/C=C/C=C/1C [Rapa*-1Z] |  |  | 0.002 ×10⁻⁶ cm/s | < 0.3 ×10⁻⁶ cm/s | 1.6 ×10⁻⁶ cm/s |  |  |  |  |  |  | 
C=CCO/N=C1/C[C@@H]([C@H](C)C[C@@H]2CC[C@@H](O)[C@H](OC)C2)OC(=O)[C@@H]2CCCCN2C(=O)C(=O)[C@]2(O)O[C@@H](CC[C@H]2C)C[C@H](OC)/C(C)=C/C=C/C=C/[C@@H](C)C[C@@H](C)C(=O)[C@H](OC)[C@H](O)/C(C)=C/[C@H]1C [Rapa*-9Z] |  |  | 0.014 ×10⁻⁶ cm/s | < 0.1 ×10⁻⁶ cm/s | 0.4 ×10⁻⁶ cm/s |  |  |  |  |  |  | 
CO[C@H]1C[C@@H]2CC[C@@H](C)[C@@](O)(O2)C(=O)C(=O)N2CCCC[C@H]2C(=O)O[C@H]([C@H](C)C[C@@H]2CC[C@@H](O)[C@H](OC)C2)CC(=O)[C@H](C)/C=C(\C)[C@@H](O)[C@@H](OC)C(=O)[C@H](C)C[C@H](C)/C=C/C=C/C=C/1C [rapamycin, reference compound] |  |  | 0.209 ×10⁻⁶ cm/s | 0.8 ×10⁻⁶ cm/s | 2.3 ×10⁻⁶ cm/s | inhibited mutant and wild-type cells equally | conferred resistance to rapamycin | rescued full sensitivity | retained activity, albeit reduced, in the mutant strains | slightly selective toward the wild-type complex | profound inhibition of larval development | 1 µM
